Laboratory results published in patent publication US9980986B2, “Methods of producing pancreatic hormones” (ViaCyte, Inc., priority 2006, dated 2018).

B1: Wnt3a: wingless-type MMTV integration site family member 3A (protein, UniProt P56704 19-352, looked up)
Protein Wnt-3a: SYPIWWSLAVGPQYSSLGSQPILCASIPGLVPKQLRFCRNYVEIMPSVAEGIKIGIQECQHQFRGRRWNCTTVHDSLAIFGPVLDKATRESAFVHAIASAGVAFAVTRSCAEGTAAICGCSSRHQGSPGKGWKWGGCSEDIEFGGMVSREFADARENRPDARSAMNRHNNEAGRQAIASHMHLKCKCHGLSGSCEVKTCWWSQPDFRAIGDFLKDKYDSASEMVVEKHRESRGWVETLRPRYTYFKVPTERDLVYYEASPNFCEPNPETGSFGTRDRTCNVSSHGIDGCDLLCCGRGHNARAERRREKCRCVFHWCCYVSCQECTRVYDVHTCK

How the values were obtained:
[1] = tested on: activin receptor-like (ALK) receptor; experiment: TGF-beta receptor family inhibitor added to cell cultures at stage 2 of differentiation; format: cell-based, human; conditions: about 2.5, 5 and 10 μM added to the cell cultures at stage 2
Text: The differentiation culture conditions were substantially similar to that described in d'Amour et al. 2006. d'Amour et al. 2006 describe a 5 step differentiation protocol: stage 1 (definitive endoderm; d 1-d 4), stage 2 (primitive gut tube or foregut endoderm; d 5 to d 8), stage 3 (posterior foregut or Pdx1 endoderm; d 9 to d 12), stage 4 (pancreatic endoderm, or pancreatic epithelium and endocrine precursor; d 13 to d 15) and stage 5 (hormone expressing endocrine cell, d 16 or more). As in d'Amour et al. 2006, the undifferentiated cells were cultured for one day (d 1) in RPMI containing 100 ng/ml Activin A (R&D Systems) and 25 ng/ml recombinant human WNT3a (R&D Systems), two days (d 2 and d 3) in RPMI medium containing 0.2% fetal bovine serum (FBS, Specialty Media) and 100 ng/ml Activin A. The embodiments described herein were slightly modified beginning at day 3 (d 3). The cells from day 3 (definitive endoderm) were cultured for three days (d 4 to d 6; foregut endoderm) in RPMI medium containing 2% FBS, 50 ng/ml recombinant human KGF/FGF7 (R&D Systems), and 0.25 μM KAAD-cyclopamine (Toronto Research Chemicals). Activin is removed from cells at this stage. […]

[2] = tested on: Human embryonic stem cell lines; experiment: hESC differentiation by 6-step 15-day protocol with or without Wnt3a in step 1, real-time quantitative PCR; format: cell-based; conditions: Wnt3a 25 ng/mL added during the first step
Experimental: Human embryonic stem cell lines were also differentiated for 15 days via a 6-step protocol to achieve islet hormone-expressing cells. The first step comprised 3 days differentiation with either; i) activin A (100 ng/ml) or ii) activin A (100 ng/ml) and Wnt3a (25 ng/mL) to robustly produce DE (D'Amour, K., et al., Nature Biotechnology 23, 1534-1541, (2005)). Step 2 comprised 3 days differentiation in RPMI with 2% FBS containing FGF10 (50 ng/mL) and KAAD-cyclopamine (0.5 μM). Step 3 comprised 2 days differentiation in CMRL with B27 supplement (1:100) containing FGF10 (50 ng/mL), KAAD-cyclopamine (0.5 μM) and retinoic acid (2 μM). Step 4 comprised 2 days differentiation in CMRL with B27 supplement (1:100) containing retinoic acid (2 μM) and DAPT (1 μM). Step 5 comprised 2 days differentiation in CMRL with B27 supplement (1:100) containing DAPT (1 μM) and exendin 4 (40 ng/mL). Step 6 comprised 3 days differentiation in CMRL with B27 supplement (1:100) containing exendin 4 (40 ng/mL). Duplicate samples were taken from each plate at multiple time points and gene expression was analyzed by real-time quantitative PCR.

| Molecule | Effect on cell differentiation [1] | Effect on endocrine cell differentiation [2] |
| --- | --- | --- |
| NC(=O)c1ccc(-c2nc(-c3ccc4c(c3)OCO4)c(-c3ccccn3)[nH]2)cc1 [SB-431542] | potentiated cell differentiation | – |
| B1 | – | marked enhancement of endocrine cell differentiation |
